Reference: patent US12714715B2, “Agent for treating myopia, preventing myopia and/or suppressing myopia progression” (SANTEN PHARMACEUTICAL CO., LTD., priority 2020, dated 2026)

Key:
guinea pig myopia model = experiment: Test on suppression of myopia progression (axial length elongation and refractive error) in guinea pig myopia model; assay type: in vivo, guinea pig (Slc:Hartley); details: for Difference of axial lengths / Difference of refraction: 10 μL topical to goggled right eye once daily 14 days, right eye − left eye, average n=6; for Difference of axial lengths / Difference of refraction / Suppression rate of axial length elongation / Suppression rate of refractive error: day 14; for Suppression rate of axial length elongation / Suppression rate of refractive error: vs vehicle control group
Description: According to the following procedures, the effect of AFDX0250 on the suppression of myopia progression (the axial length elongation and the refractive error) was evaluated.
AFDX0250 was dissolved in purified water with a buffering agent and a tonicity agent to prepare 0.5% AFDX0250 solution. 1 mol/L sodium hydroxide reagent solution or dilute hydrochloric acid was added to the solution to adjust the pH thereof to neutral. Also, a buffering agent and a tonicity agent were dissolved in purified water to prepare a neutral vehicle. 9.8 mL of the vehicle was mixed with 0.2 mL of 0.5% AFDX0250 solution and stirred to prepare 0.01% AFDX0250 solution. 3 mL, 4 mL and 4.5 mL of the vehicles were mixed with 2 mL, 1 mL and 0.5 mL of 0.01% AFDX0250 solutions, respectively, and stirred to prepare 0.004%, 0.002% and 0.001% AFDX0250 solutions.
A test tube with a diameter of 18 mm was cut off at the level of 10 mm from the bottom, and the cut-off bottom part was glued to one side of Velcro tape (about 20 mm square) with a hole of an appropriate diameter in the center with an adhesive agent to prepare a lens (goggle). 3-week-old guinea pigs (Slc:Hartley) (n=30) were obtained, and the prepared goggle was covered to the right eye of each guinea pig with an adhesive agent to induce myopia to the guinea pigs. The left eye thereof without goggle was used as control.
The […] group, 0.004% AFDX0250 solution administration group, […] group (control group) (n=6 per group). In the AFDX0250 solution administration groups, 10 μL of the AFDX0250 solution in each concentration was topically administered to the right eye of each guinea pig once daily for 14 days from the day when the right eye was covered with the goggle (day 0) to day 13. In the control group, 10 μL of the vehicle was topically administered to the right eye of each guinea pig once daily for 14 days from the day when the right eye was covered with the goggle (day 0) to day 13. In the all groups, 10 μL of the vehicle was topically administered to the left eye at the same frequency of administration as that of each group daily for 14 days from day 0 to day 13. The guinea pigs were reared under a normal rearing condition.
On day 14 from the myopia induction, the axial lengths of right and left eyeballs were measured with an ultrasound axial length measurement device ECHOSCAN US-500 (A-scan) (NIDEK CO., LTD.), and the refractions were measured with the auto refractometer AR-1a (NIDEK CO., LTD.). The difference of axial lengths and the suppression rate of the axial length elongation as well as the difference of refraction and the suppression rate of the refractive error were calculated according to the following formulae. The calculation was performed in Microsoft Excel. Difference of axial lengths (mm)=Axial length of right eye (mm)−Axial length of left eye (mm) Suppression rate of axial length elongation (%)=(1−Difference of axial lengths in AFDX0250 solution administration group/Difference of axial lengths in control group)×100 (Formula) Difference of refraction (D)=Refraction of right eye (D)−Refraction of left eye (D) Suppression rate of refractive error (%)=(1−Difference of refraction in AFDX0250 solution administration group/Difference of refraction in control group)×100 (Formula) (Test Result)
AFDX0250 was dissolved in purified water with a buffering agent and a tonicity agent to prepare 0.5% AFDX0250 solution. 1 mol/L sodium hydroxide reagent solution or dilute hydrochloric acid was added to the solution to adjust the pH thereof to neutral. Also, a buffering agent and a tonicity agent were dissolved in purified water to prepare a neutral vehicle. 4 mL and 4.8 mL of vehicles were mixed with 1 mL and 0.2 mL of 0.5% AFDX0250 solutions, respectively, and stirred to prepare 0.1% and 0.02% of AFDX0250 solutions. Also, 4 mL of the vehicle was mixed with 1 mL of 0.02% AFDX0250 solution and stirred to prepare 0.004% AFDX0250 solution. […]

guinea pigs = experiment: Evaluation of mydriatic action (pupil diameter, pupillary light reflex) after repeated topical administration to one eye; assay type: in vivo, guinea pig; details: guinea pig, in vivo
Description: An atropine solution was repeatedly topically administered to one eye of a guinea pig to evaluate the effect of the solution on mydriasis.
Atropine sulfate hydrate and glycerin were dissolved in water for injection to prepare 0.001%, 0.0003% and 0.0001% atropine solutions without adjusting the pH.
Each of the prepared solutions was topically administered to the left eye of guinea pigs (the left eyes of 3 guinea pigs for each solution) in a volume of 10 μL once daily for 5 days. The pupil diameter of each guinea pig was measured before the administration on day 5 as well as 1, 2 and 4 hours after the administration to observe the pupillary light reflex. The measured pupil diameters of each guinea pig at each measurement time were averaged to obtain the average value. The obtained average value was defined as the average pupil diameter. Among each average pupil diameter at each measurement time, the longest diameter was defined as the maximum pupil diameter.

[1] = Comparative Example 1, 0.004% solution
[2] = Comparative Example 1, 0.004% solution, topical once daily 14 days
[3] = Comparative Example 1, 0.02% solution
[4] = Comparative Example 1, 0.02% solution, topical once daily 14 days
[5] = Comparative Example 1, 0.1% solution
[6] = Comparative Example 1, 0.1% solution, topical once daily 14 days
[7] = Comparative Example 1, 0.5% solution
[8] = Comparative Example 1, 0.5% solution, topical once daily 14 days
[9] = Comparative Example 2, 0.004% solution
[10] = Comparative Example 2, 0.004% solution, topical once daily 14 days
[11] = Comparative Example 2, 0.01% solution
[12] = Comparative Example 2, 0.01% solution, topical once daily 14 days
[13] = Comparative Example 2, 0.02% solution
[14] = Comparative Example 2, 0.02% solution, topical once daily 14 days
[15] = Comparative Example 2, 0.1% solution
[16] = Comparative Example 2, 0.1% solution, topical once daily 14 days

Measurement time of maximum pupil diameter (guinea pigs; 5 days): 2 h
SMILES: CCN(CC)CC1CCCCN1CC(=O)N1c2ccccc2C(=O)Nc2cccnc21 (stereo not drawn) [AFDX0116, 11-[2-[2-[(diethylamino)methyl]-1-piperidinyl]acetyl]-5,11-dihydro-6H-pyrido[2,3-b][1,4]benzodiazepin-6-one]
Difference of axial lengths (guinea pig myopia model; [1]): 0.19 mm
Difference of refraction (guinea pig myopia model; [1]): −4.74 D
Suppression rate of axial length elongation (guinea pig myopia model; [2]): 21.14%
Suppression rate of refractive error (guinea pig myopia model; [2]): 45.54%
Difference of axial lengths (guinea pig myopia model; [3]): 0.09 mm
Difference of refraction (guinea pig myopia model; [3]): −2.17 D
Suppression rate of axial length elongation (guinea pig myopia model; [4]): 62.95%
Suppression rate of refractive error (guinea pig myopia model; [4]): 73.10%
Difference of axial lengths (guinea pig myopia model; [5]): 0.09 mm
Difference of refraction (guinea pig myopia model; [5]): −1.90 D
Suppression rate of axial length elongation (guinea pig myopia model; [6]): 63.86%
Suppression rate of refractive error (guinea pig myopia model; [6]): 73.17%
Difference of axial lengths (guinea pig myopia model; [7]): 0.03 mm
Difference of refraction (guinea pig myopia model; [7]): −2.10 D
Suppression rate of axial length elongation (guinea pig myopia model; [8]): 87.73%
Suppression rate of refractive error (guinea pig myopia model; [8]): 75.86%
Difference of axial lengths (guinea pig myopia model; [9]): 0.12 mm
Difference of refraction (guinea pig myopia model; [9]): −6.59 D
Suppression rate of axial length elongation (guinea pig myopia model; [10]): 22.52%
Suppression rate of refractive error (guinea pig myopia model; [10]): 9.96%
Difference of axial lengths (guinea pig myopia model; [11]): 0.12 mm
Difference of refraction (guinea pig myopia model; [11]): −3.61 D
Suppression rate of axial length elongation (guinea pig myopia model; [12]): 21.44%
Suppression rate of refractive error (guinea pig myopia model; [12]): 50.71%
Difference of axial lengths (guinea pig myopia model; [13]): 0.05 mm
Difference of refraction (guinea pig myopia model; [13]): −2.52 D
Suppression rate of axial length elongation (guinea pig myopia model; [14]): 69.73%
Suppression rate of refractive error (guinea pig myopia model; [14]): 65.61%
Difference of axial lengths (guinea pig myopia model; [15]): 0.05 mm
Difference of refraction (guinea pig myopia model; [15]): −2.42 D
Suppression rate of axial length elongation (guinea pig myopia model; [16]): 68.65%
Suppression rate of refractive error (guinea pig myopia model; [16]): 66.87%
Concentration showing the anti-myopic effect (comparison in words) (guinea pig myopia model; Comparative Examples 1 and 2 compared with Examples 1 and 2): higher than that of AFDX0250
Effect on the axial length elongation and the refractive error (summary in words) (guinea pig myopia model; summary of Examples 1 and 2 (AFDX0250) and Comparative Examples 1 and 2 (AFDX0116), topical once daily 14 days): suppressed the axial length elongation and the refractive error
Mydriatic action (pupil diameter and pupillary light reflex, in words) (guinea pigs): increased the pupil diameter and decreased the pupillary light reflex
